From patent US7763426B2, “Probes and methods for detection of Escheridia coli and antibiotic resistance” (priority 2004, dated 2010)
{Fluorescein} = fluorescein label (binding site for anti-fluorescein Fab-HRP); {Biotin} = biotin (capture probe anchor)

Experiments:
Enterococcus 16S rRNA = test: Amperometric detection of bacterial 16S rRNA, 65° C. hybridization (Examples 2, 3); assay type: binding, Enterococcus faecalis; settings: for sensitivity of electrochemical sensor assay (cells detected): five-fold serial dilutions of enterococcal cells, capture probe EF207C, EF165D 5′-fluorescein, EF171D 3′-fluorescein
E. coli 16S rRNA [1] = test: as above; assay type: binding, Escherichia coli; settings: for sensitivity of electrochemical sensor assay (cells detected): five-fold serial dilutions of E. coli cells, capture probe EC434C, 5′-fluorescein 6 nt gap vs 3′-fluorescein 0 nt gap
bacterial 16S rRNA [2] = test: Sensor validation using control ATCC bacterial strains, UTI Chip with 7-detector-probe mixture (Example 3); assay type: binding
Description: The following American Type Culture Collection (ATCC) strains were obtained from the UCLA Clinical Microbiology Laboratory: Escherichia coli strain 35218, Klebsiella pneumoniae strain 13883, K. oxytoca strain 49131, Enterobacter aerogenes strain 13048. E. cloacae strain 13047, Proteus mirabilis strain 12453, Pseudomonas aeruginosa strain 10145, Citrobacter freundii strain 8090, and Enterococcus faecalis strain 49532. Additional strains of uropathogenic bacteria were obtained from the UCLA Uropathogen Specimen Bank: E. coli strain Ec103, K. pneumoniae strain Kp295, P. mirabilis strain Pm278, P. aeruginosa strain Pa3, and E. faecalis strain Eo111. Isolation of uropathogens from clinical urine specimens was approved by the UCLA and VA Greater Los Angeles Healthcare System institutional Review Boards. The identity of all clinical strains was determined by standard biochemical assays and verified by 16S rRNA gene sequencing. The 16S rRNA genes were PCR amplified with universal primers 8UA and 1485B.^17 The amplified product was purified by using the QIAquick PCR purification kit (QIAGEN, Inc., Chatsworth, Calif.) and directly sequenced using primer pairs 8UA/907B and 774A/1485B as described previously.^18 DNA sequencing was performed at the W. M. Keck Foundation Biotechnology Resource Laboratory (New Haven, Conn.). Isolates were inoculated into Brucella broth with 15% glycerol (BBL, Maryland) and were stored at −70° C. Bacteria were grown overnight in Luria Broth (LB), inoculated into LB and grown to logarithmic phase as measured by OD600. Concentration of the logarithmic phase specimens was determined by serial plating, typically yielding 10^7-10^8 bacteria/ml.
Logarithmic phase bacterial cells were concentrated by centrifugation at 10.000 rpm for 5 min, Lysis of bacterial cells was performed by addition of 10 μl of one or more of the following […]. 0.1% Triton X-100 in 20 mM Tris-HCl, pH 8.0, 2 mM EDTA and 1 mg/ml lysozyme (Sigma). After incubation at room temperature, 50 μl of the detector probe (0.25 μM) in 2.5% bovine serum albumin (Sigma)—1 M phosphate buffer, pH 7.4, was added to the bacterial lysate. The detector probe/bacterial lysate mixture was incubated for 10 min at 65° C. to allow hybridization of the detector probe to target rRNA. 4 μl of the bacterial lysate/detector probe mixture was deposited on each of the working electrodes in the sensor array. The sensor array was incubated for 10 min at 65° C. in a humidified chamber. After washing and drying, 4 μl of 0.5 U/mil anti-fluorescein horseradish peroxidase (HRP) Fab conjugate (Roche, diluted in 0.5% casein in 1 M sodium phosphate buffer, pH 7.4) were deposited on each of the working electrodes for 10-15 min. After washing and drying, a prefabricated plastic well manifold (GeneFluidics) was bonded to the sensor array. 50 μl of HRP substrate solution (K-Blue Aqueous TMB, Neogen, Lexington, Ky.) was placed on each of the sensors in the array so as to cover all three of the electrodes. Measurements were immediately and simultaneously taken for all 16 sensors. The entire assay protocol was completed within 45 min from the initiation of bacterial lysis. Amperometric current vs. time was measured using a multichannel potentiostat (GeneFluidics). The voltage was fixed at −200 mV (vs. reference), and the electroreduction current was measured at 60 sec after the HRP redox reaction reached steady state. Negative controls were included in each experiment in which 1 M phosphate buffer, pH 7.4, was used as the target instead of bacterial lysate. All samples were analyzed in duplicate.
Experiments were performed on ATCC strains to verify probe specificity using a 16-sensor array “UTI chip” in which the UNI782C, EB1176C, EC434C, KE434C, PM187C, PA102C, and EF207C 5′-biotinylated capture probes (defined in Table 1) were tested in duplicate. The two remaining sensors in the array served as negative controls (using capture probe UNI782C without bacterial lysate). […]

bacterial 16S rRNA [3] = test: Species specificity of short probe pairs, 16 sensor array at ambient temperature (Example 5); assay type: binding
E. coli 16S rRNA [4] = test: Amperometric detection of E. coli 16S rRNA with short probes at ambient temperature (Example 5); assay type: binding, Escherichia coli; settings: for sensitivity (threshold): fivefold dilutions of E. coli cells
[5] = Double-labeled Test Probes on the electrochemical sensor (no hybridization)
Procedure: FIG. 7. The effect of oligonucleotide length on electrochemical signal intensity. Single stranded oligonucleotides (‘Test Probes’) ranging from 20-60 bps in length modified at the 5′- and 3′-ends with biotin and fluorescein, respectively, were tested to examine the effect of probe length on signal intensity. Hybridization was not required in these experiments because, as shown in the inset, the double-labeled probes served as a bridge between fluorescein and biotin on the electrochemical sensor surface. The highest signal output was obtained using the 40 bp probe, yielding a lower limit of detection at a concentration of 10 pM. Background current output was measured using negative control (NC) sensors to which no cell lysates were applied.
Sensor characterization and surface functional layer preparation. Microfabricated electrochemical sensor arrays with an alkanethiolate self-assembled monolayer (SAM) were obtained from GeneFluidics (Monterey Park, Calif.). […]
Amperometric Detection of bacterial 16S rRNA. […] Amperometric current vs. time was measured using a multichannel potentiostat (GeneFluidics). The voltage was fixed at −200 mV (vs. reference), and the electroreduction current was measured at 60 sec after the HRP redox reaction reached steady state. All samples were analyzed in duplicate. […] Positive signals are determined by comparing the signals with the background using paired T test. […]

[6] = 3′-fluorescein and continuity of hybridization sites vs 5′-fluorescein with gap

CCGCGGGTCCATCCATCAGCGACACCCGAAAGCGC (DNA CCGCGGGTCCATCCATCAGCGACACCCGAAAGCGC; sugars by position and backbone not given here; further chemistry not fully specified; listed as Enterococcus sp.) [EF171D]
improvement in sensitivity (Enterococcus 16S rRNA; [6]): 24-25 fold | sensitivity of electrochemical sensor assay (cells detected) (Enterococcus 16S rRNA): 9,400 cells

CTGAAAGTACTTTACAACCCGAAGGCCTTCTTCAT (DNA CTGAAAGTACTTTACAACCCGAAGGCCTTCTTCAT; DNA, backbone and methylation of C not given here; listed as Escherichia coli) [EC393D]
sensitivity of electrochemical sensor assay (cells detected) (E. coli 16S rRNA [1]): 6,200 cells

GTCCATCCATCAGCGACACCCGAAAGCGCCTTTCA (DNA GTCCATCCATCAGCGACACCCGAAAGCGCCTTTCA; sugars by position and backbone not given here; listed as Enterococcus sp.) [EF165D]
sensitivity of electrochemical sensor assay (cells detected) (Enterococcus 16S rRNA): 232,000 cells

GTCAATCGNCRAGGTTATTAACCTYAHCGCCTTCC (DNA GTCAATCGMCRAGGTTATTAACCTYAHCGCCTTCC; chemistry not given here; listed as Klebsiella pneumoniae) [KE434C]
capture probe specificity (bacterial 16S rRNA [2]): positive for all Enterobacteriaceae except E. coli

GTCAATGAGCAAAGGTATTAACTTTACTCCCTTCC (DNA GTCAATGAGCAAAGGTATTAACTTTACTCCCTTCC; chemistry not given here; listed as Escherichia coli) [EC434C]
capture probe specificity (bacterial 16S rRNA [2]): positive for E. coli

EC439C (15 mer)/EC424D (15 mer): E. coli probe pair, SEQ ID NO: 44 and 45 (DNA 1 TATTAACTTTACTCC; DNA 2 CTTCCTCCCCGCTGA; chemistry not given here; listed as Escherichia coli)
cross-reactivity with P. aeruginosa (bacterial 16S rRNA [3]; ambient temperature): Weak cross-reactivity | Species detected (bacterial 16S rRNA [3]; ambient temperature hybridization): Ec | Species not detected (bacterial 16S rRNA [3]; ambient temperature, * cross-reactivity at a level significantly less than with the target species): Ea, Ef, Kp, Pa*, Pm | mean current (E. coli 16S rRNA [4]): 1605 negative nanoamperes | sensitivity (threshold) (E. coli 16S rRNA [4]; listed as 15mer capture and detector probes): approximately 250 cells | sensitivity (threshold) (E. coli 16S rRNA [4]; listed as E. coli-specific 15mer probe pairs): approximately 173 cells

CGTCAATGAGCAAAGGTATTACTCCCTTCCTCCCCGCTGA (DNA CGTCAATGAGCAAAGGTATTACTCCCTTCCTCCCCGCTGA; DNA, 5' {Biotin}, 3' {Fluorescein}, backbone and methylation of C not given here) [40-mer]
lower limit of detection ([5]; 5′-biotin, 3′-fluorescein Test Probe): 10 pM | signal relative to 20mer and 60mer Test Probes ([5]; across a range of concentrations): higher signals

TTGGTGAGCCGTTACCTCACCAACTAGCTAATGCA (DNA TTGGTGAGCCGTTACCTCACCAACTAGCTAATGCA; chemistry not given here; listed as Enterococcus sp.) [EF207C]
capture probe specificity (bacterial 16S rRNA [2]): E. faecalis

TCCCCGCTGAAAGTACTTTACAACCCGAAGGCCTT (DNA TCCCCGCTGAAAGTACTTTACAACCCGAAGGCCTT; sugars by position and backbone not given here; further chemistry not fully specified; listed as Escherichia coli) [EC399D]
improvement in sensitivity (E. coli 16S rRNA [1]; [6]): 24-25 fold | sensitivity of electrochemical sensor assay (cells detected) (E. coli 16S rRNA [1]): 260 cells

CGGACTACGACRYACTTTATGAGGTCCGCTTGCTC (DNA CGGACTACGACRYACTTTATGAGGTCCGCTTGCTC; chemistry not given here; listed as Enterobacter sp.) [EB1172C]
capture probe specificity (bacterial 16S rRNA [2]): positive for all members of the family Enterobacteriaceae tested and negative for P. aeruginosa and E. faecalis

GGGTTCATCCGATAGTGCAAGGTCCGAAGAGCCCC (DNA GGGTTCATCCGATAGTGCAAGGTCCGAAGAGCCCC; chemistry not given here; listed as Proteus mirabilis) [PM188C]
capture probe specificity (bacterial 16S rRNA [2]): specific for P. mirabilis

CCCACTTTCTCCCTCAGGACGTATGCGGTATTAGC (DNA CCCACTTTCTCCCTCAGGACGTATGCGGTATTAGC; chemistry not given here; listed as Pseudomonas aeruginosa) [PA111C]
capture probe specificity (bacterial 16S rRNA [2]): P. aeruginosa

CATCGTTTACGGCGTGGACTACCAGGG (DNA CATCGTTTACGGCGTGGACTACCAGGG; chemistry not given here) [UNI782C]
capture probe specificity (bacterial 16S rRNA [2]): detected all bacterial uropathogens tested
